In US4472305A, “Hexapeptide amides” (Sterling Drug Inc., priority 1983, dated 1984):
pIC50: −log10 of the molar value. Where “and” joins values, the source holds several entries; their conditions need not be identical. Equal entries are not always repeated. Non-standard residues stand in square brackets, D forms with d. Residues, ends and D or L forms follow the SMILES beside them. NMeF = CN[C@@H](Cc1ccccc1)C(=O)O; hPhe = N[C@@H](CCc1ccccc1)C(=O)O; NMeL = CN[C@@H](CC(C)C)C(=O)O; NMeNle = CCCC[C@H](NC)C(=O)O; NMeM = CN[C@@H](CCSC)C(=O)O; Nle = CCCC[C@H](N)C(=O)O

Columns and labels:
[1] = molecular target: T1, SP receptor (Rattus norvegicus, UniProt P14600); assay: 3H-SP binding test, rat submaxillary gland tissue; settings: for IC50: 3H-SP Binding IC50(μM), rat submaxillary gland tissue (Examples 1-34); for inhibition at 30 µM: read-out: 3H-SP Binding % Inhibition
T1 construct: from tissue; host or cells: rat submaxillary gland (crude tissue suspension)
T1 sequence (P14600 whole entry): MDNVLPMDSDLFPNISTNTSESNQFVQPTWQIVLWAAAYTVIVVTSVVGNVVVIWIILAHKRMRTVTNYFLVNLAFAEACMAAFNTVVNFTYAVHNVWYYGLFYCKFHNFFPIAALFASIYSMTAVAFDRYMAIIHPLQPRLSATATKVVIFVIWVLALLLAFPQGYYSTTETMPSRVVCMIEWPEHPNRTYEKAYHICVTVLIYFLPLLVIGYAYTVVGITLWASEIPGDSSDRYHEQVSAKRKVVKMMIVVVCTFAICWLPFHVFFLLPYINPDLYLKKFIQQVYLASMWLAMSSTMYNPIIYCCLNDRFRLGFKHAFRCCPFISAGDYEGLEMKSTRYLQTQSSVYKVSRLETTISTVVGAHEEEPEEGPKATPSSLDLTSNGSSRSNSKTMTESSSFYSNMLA
Method: (§1) Crude rat submaxillary gland or brain tissue is suspended in buffer containing protease inhibitors (and calcium ions and magnesium ions in the case of brain tissue) and incubated under nitrogen atmosphere with ^3 H-SP and test compound. The bound SP is then separated from free SP by filtration and quantitated by liquid scintillation spectroscopy. This test meets the criteria of reversibility, saturability, sensitivity to known SP agonists and antagonists, and specificity for an SP receptor binding assay.
(§2) With regard to reversibility, addition of unlabelled SP causes a gradual decrease in bound ^3 H-SP, showing that SP is not irreversibly bound to the receptors in the tissue. With regard to saturability, the amount of bound ^3 H-SP in the preparation increases in direct proportion to the concentration of ^3 H-SP added until a saturation point is reached. […] With regard to sensitivity, known SP agonists and antagonists inhibit ^3 H-SP binding.
(§3) The results are expressed either as percent inhibition at a concentration of 30 micromoles per liter (μM) or as an IC50 calculated as the concentration in micromoles per liter.
(§4) The ^3 H-SP binding test results were obtained using rat submaxillary gland tissue for Examples 1-34 and rat brain tissue for Examples 35-42.

[2] = test system: longitudinal muscle of guinea pig terminal ileum; assay: Guinea pig ileum test (SP agonist and antagonist effect); format: cell-based; settings: for Guinea Pig Ileum pA2: antagonism of reference agonist, Schild plot analysis; for Guinea Pig Ileum % Agonism (potency relative to SP): contraction of ileum longitudinal muscle strips, relative molar potency vs SP
Method: Strips of longitudinal muscle derived from terminal ileum of adult male guinea pigs (Charles River, 400-600 g.) are mounted in 5-ml. organ baths containing oxygenated Krebs solution containing 1 μM each of atropine and pyrilamine maintained at 30-33 C. and connected to isometric transducers. Following tissue equilibration and repeated washing (45-60 min.), SP or an appropriate reference agonist is added cumulatively to the bath and contractions of the tissue are recorded. The bath is washed thoroughly and 30-45 min. is allowed to elapse before construction of a second reference agonist curve to assure reproducibility of the responses. Test compounds are similarly evaluated for agonist activity up to a maximum concentration of 10-100 μM. […] When appropriate, relative molar potency ratios are calculated (EC50 reference/ED50 test drug). […] The effects of several concentrations of test antagonist, pooled across separate experiments, provide dose-ratio (EC50 shift) data for a standard Schild plot analysis, with computation of the pA2.

[3] = test system: rat vas deferens; assay: Rat vas deferens test (SP antagonist effect); format: cell-based; settings: reversal of potentiation by 10 μM SP of electrically induced contractions
Method: Rat vasa deferentia are suspended in organ baths containing warmed, oxygenated Krebs solution and repetitively field-stimulated (0.1 Hz., 1 msec. duration, monophasic pulses) through platinum wire ring electrodes. Rapid, regular contractions of the muscle are recorded via transducers on a Grass polygraph. SP and related tachykinins added to the bath evoke a dose-dependent, stable potentiation of these electrically-induced contractions. For routine screening, a 10 μM concentration of SP is applied to all tissues to produce a 2-6 fold increase in electrically-stimulated twitch height. SP antagonist compounds (1-30 μM) produce an immediate, dose-related reversal of the response of the tissue to SP, which is quantified by determination of an IC50.

[4] = molecular target: T1, SP receptor; assay: 3H-SP binding test, rat brain tissue; settings: rat brain tissue (Examples 35-42); for inhibition at 30 µM: 30 μM test compound
Method: as §1, §2, §3, §4

Row | Structure (SMILES) | IC50 [1] | inhibition at 30 µM [1] | Guinea Pig Ileum pA2 [2] | Guinea Pig Ileum % Agonism (potency relative to SP) [2] | pIC50 [3] | inhibition at 30 µM [4] | pIC50 [4]
1 | CSCC[C@H](NC(=O)[C@H](CC(C)C)NC(=O)[C@@H](Cc1c[nH]c2ccccc12)NC(=O)[C@H](Cc1ccccc1)NC(=O)[C@@H](Cc1ccccc1)NC(=O)[C@@H]1CCCN1)C(N)=O [Example 12, HPro-DPhe-Phe-DTrp-Leu-MetNH2] (H-P[dF]F[dW]LM-NH2) | 26.8 µM | 69% | 5.6 | 0.0001% | 4.89 | – | –
2 | CSCC[C@H](NC(=O)[C@H](CC(C)C)NC(=O)[C@@H](Cc1ccccc1)NC(=O)[C@H](Cc1ccccc1)NC(=O)[C@@H](Cc1ccccc1)NC(=O)[C@@H]1CCCN1)C(N)=O [Example 23, HPro-DPhe-Phe-DPhe-Leu-MetNH2] (H-P[dF]F[dF]LM-NH2) | – | 53% | 5.4 | < 0.001% | 4.70 | – | –
3 | CSCC[C@H](NC(=O)[C@H](CC(C)C)N(C)C(=O)[C@@H](Cc1c[nH]c2ccccc12)NC(=O)[C@H](Cc1ccccc1)NC(=O)[C@@H](Cc1c[nH]c2ccccc12)NC(=O)[C@@H]1CCCN1)C(N)=O [Example 35, HPro-DTrp-Phe-DTrp-MeLeu-MetNH2] (H-P[dW]F[dW][NMeL]M-NH2) | – | – | 6.3 | – | – | 46% | 4.36
4 | CSCC[C@@H](C(N)=O)N(C)C(=O)[C@H](CC(C)C)NC(=O)[C@@H](Cc1c[nH]c2ccccc12)NC(=O)[C@H](Cc1ccccc1)NC(=O)[C@@H](Cc1c[nH]c2ccccc12)NC(=O)[C@@H]1CCCN1 [Example 36, HPro-DTrp-Phe-DTrp-Leu-MeMetNH2] (H-P[dW]F[dW]L[NMeM]-NH2) | – | – | 6.3 | – | – | 82% | 4.94
5 | CSCC[C@H](NC(=O)[C@H](CC(C)C)NC(=O)[C@@H](Cc1ccccc1)NC(=O)[C@H](CCc1ccccc1)NC(=O)[C@@H](Cc1ccccc1)NC(=O)[C@@H]1CCCN1)C(N)=O [Example 29, HPro-DPhe-Hfe-DPhe-Leu-MetNH2] (H-P[dF][hPhe][dF]LM-NH2) | – | 64% | – | – | < 4.40 | – | –
6 | CSCC[C@H](NC(=O)[C@H](CC(C)C)NC(=O)CNC(=O)[C@H](Cc1ccccc1)NC(=O)[C@H](Cc1ccccc1)N(C)C(=O)[C@@H]1CCCN1)C(N)=O [Example 40, HPro-MePhe-Phe-Gly-Leu-MetNH2] (H-P[NMeF]FGLM-NH2) | – | – | – | – | – | 9% | –
7 | CSCC[C@H](NC(=O)[C@H](CC(C)C)NC(=O)[C@@H](Cc1c[nH]c2ccccc12)NC(=O)[C@H](Cc1ccccc1)NC(=O)[C@@H](Cc1c[nH]c2ccccc12)NC(=O)[C@@H]1CCCN1)C(N)=O [Example 17, HPro-DTrp-Phe-DTrp-Leu-MetNH2] (H-P[dW]F[dW]LM-NH2) | 9.7 µM and 16.1 µM | – | 5.7 | < 0.01% | 5.39 | – | –
8 | CCCC[C@@H](C(N)=O)N(C)C(=O)[C@H](CC(C)C)NC(=O)[C@@H](Cc1c[nH]c2ccccc12)NC(=O)[C@H](Cc1ccccc1)NC(=O)[C@@H](Cc1c[nH]c2ccccc12)NC(=O)[C@@H]1CCCN1 [Example 42, HPro-DTrp-Phe-DTrp-Leu-MeNleNH2] (H-P[dW]F[dW]L[NMeNle]-NH2) | – | – | – | – | – | 81% | –
9 | CCCC[C@H](NC(=O)[C@H](CC(C)C)NC(=O)[C@@H](Cc1ccccc1)NC(=O)[C@H](Cc1ccccc1)NC(=O)[C@@H](Cc1ccccc1)NC(=O)[C@@H]1CCCN1)C(N)=O [Example 31, HPro-DPhe-Phe-DPhe-Leu-NleNH2] (H-P[dF]F[dF]L[Nle]-NH2) | – | 47% | – | – | 4.52 | – | –
10 | CSCC[C@H](NC(=O)[C@H](CC(C)C)NC(=O)[C@@H](Cc1c[nH]c2ccccc12)NC(=O)[C@H](Cc1ccccc1)N(C)C(=O)[C@@H](Cc1c[nH]c2ccccc12)NC(=O)[C@@H]1CCCN1)C(N)=O [Example 38, HPro-DTrp-MePhe-DTrp-Leu-MetNH2] (H-P[dW][NMeF][dW]LM-NH2) | – | – | – | – | – | 68% | –
